In this experiment the test system is Mus musculus. The experiment can be described thus: In vivo activity against murine P388 leukemia in mice at optimal dose 70 mg/kg/day. The experiment is classed as functional.

With `CN(C)CCCCCNc1ccc2ncn3c4ccc(O)cc4c(=O)c1c23`, the T/C is given as 172%.
